From patent US20210267203A1, “PESTICIDALLY ACTIVE AZOLE-AMIDE COMPOUNDS” (SYNGENTA PARTICIPATIONS AG, priority 2018, published 2021)

Assays:
Format in all cases: in vivo
[1] = system: Plutella xylostella (Diamondback Moth); assay: Example B14: activity against Plutella xylostella (diamondback moth), 96-well artificial diet; conditions: 216 h, application rate 500 ppm, 9 days after infestation
How it was run: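 Diet in 96-well plates was treated with aqueous dilutions of 10,000 ppm DMSO stocks, dried, and infested with 30 eggs per well via a netted lid; hatching L1 larvae fed on the diet. Mortality scored 9 days after infestation.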

[2] = system: Euschistus heros (Neotropical Brown Stink Bug); assay: Example B2: Euschistus heros (neotropical brown stink bug), soybean leaves sprayed, N2 nymphs; conditions: 120 h, application rate 200 ppm, 5 days after infestation, read-out: effect in at least one of the two categories (mortality or growth inhibition)
How it was run: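 Soybean leaves on agar sprayed with aqueous test solutions made from 10,000 ppm DMSO stocks, dried, then infested with N2 nymphs. Mortality and growth inhibition scored versus untreated samples 5 days after infestation; activity threshold at 200 ppm.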

[3] = system: Diabrotica Balteata (Corn Root Worm); assay: Example B1: Diabrotica balteata (corn root worm), maize sprouts sprayed, L2 larvae; conditions: 96 h, application rate 200 ppm, 4 days after infestation, read-out: effect in at least one of the two categories (mortality or growth inhibition)
How it was run: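 Maize sprouts on agar sprayed with aqueous dilutions of 10,000 ppm DMSO stocks, dried, then infested with 6–10 L2 larvae per well. Mortality and growth inhibition scored against untreated samples 4 days after infestation; rates of 200 ppm.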

[4] = system: Myzus persicae (Green Peach Aphid); assay: Example B8: Myzus persicae (green peach aphid), intrinsic activity; conditions: 120 h, test rate 12 ppm, sucrose solution, 24-well, 5 days after infestation
How it was run: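 Compounds diluted from 10,000 ppm DMSO stock were mixed with sucrose solution under stretched Parafilm in a sachet feeding setup, with aphid-infested pea seedlings placed on the membrane. Mortality was scored 5 days after infestation.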

[5] = system: Myzus persicae (Green Peach Aphid); assay: Example B13: activity against Myzus persicae (green peach aphid), 96-well sucrose solution; conditions: 120 h, application rate 50 ppm, 5 days after infestation
How it was run: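 Compounds, from 10,000 ppm DMSO stocks, mixed into sucrose solution in wells under stretched Parafilm, with aphids placed on the membrane in an inverted feeding setup. Mortality scored 5 days after infestation.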

[6] = system: Thrips tabaci (Onion Thrips); assay: Example B12: Thrips tabaci (onion thrips), feeding/contact activity; conditions: 144 h, application rate 200 ppm, mixed ages, 6 days after infestation
Description: Example B12: Thrips tabaci (Onion Thrips) Feeding/Contact Activity
Sunflower leaf discs were placed on agar in 24-well microtiter plates and sprayed with aqueous test solutions prepared from 10,000 ppm DMSO stock solutions. After drying the leaf discs were infested with a thrips population of mixed ages. The samples were assessed for mortality 6 days after infestation.

[7] = system: Spodoptera littoralis (Egyptian Cotton Leaf Worm); assay: Example B10: Spodoptera littoralis (Egyptian cotton leaf worm), uptake by lettuce roots from agar, eggs; conditions: 144 h, test rate 12.5 ppm, lettuce root uptake, 6 days after infestation, read-out: effect in at least one of the three categories (mortality, anti-feeding, or growth inhibition)
Excerpt: Example B10: Spodoptera littoralis (Egyptian Cotton Leaf Worm)
Test compounds were applied by pipette from 10,000 ppm DMSO stock solutions into 24-well plates and mixed with agar. Lettuce seeds were placed onto the agar and the multi well plate was closed by another plate which contained also agar. After 7 days the compound was absorbed by the roots and the lettuce grew into the lid plate. The lettuce leaves were then cut off into the lid plate. Spodoptera eggs were pipetted through a plastic stencil onto a humid gel blotting paper and the lid plate was closed with it. The samples were assessed for mortality, anti-feedant effect and growth inhibition in comparison to untreated samples 6 days after infestation.
The following compounds gave an effect of at least 80% in at least one of the three categories (mortality, anti-feeding, or growth inhibition) at a test rate of 12.5 ppm: […]

[8] = system: Plutella xylostella (Diamond Back Moth); assay: Example B5: Plutella xylostella (diamond back moth), artificial diet, 24-well, eggs; conditions: 192 h, application rate 200 ppm, 8 days after infestation, read-out: effect in at least one of the two categories (mortality or growth inhibition)
How it was run: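 Artificial diet in 24-well plates treated with aqueous dilutions of 10,000 ppm DMSO stocks, dried, then infested with Plutella eggs. Mortality and growth inhibition scored against untreated samples 8 days after infestation; activity rated at 200 ppm application rate.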

[9] = system: Spodoptera littoralis (Egyptian Cotton Leaf Worm); assay: Example B9: Spodoptera littoralis (Egyptian cotton leaf worm), cotton leaf discs sprayed, L1 larvae; conditions: foliar, 72 h, application rate 200 ppm, 3 days after infestation
How it was run: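 Leaf discs on agar sprayed with aqueous dilutions from 10,000 ppm DMSO stock, dried, then infested with five L1 larvae. Mortality, anti-feeding and growth inhibition scored against untreated samples 3 days after infestation; control counted when any category exceeds untreated.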

[10] = system: Chilo suppressalis (Striped Rice Stemborer); assay: Example B4: Chilo suppressalis (striped rice stemborer), artificial diet, L2 larvae; conditions: 144 h, application rate 200 ppm, 6 days after infestation
How it was run: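 L2 larvae (6-8 per well) placed on artificial diet treated with aqueous test solutions prepared from 10,000 ppm DMSO stocks, after drying. Mortality, anti-feeding and growth inhibition scored against untreated samples 6 days after infestation; control means at least one category exceeds untreated.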

[11] = system: Myzus persicae (Green Peach Aphid); assay: Example B6: Myzus persicae (green peach aphid), feeding/contact activity; conditions: 144 h, application rate 200 ppm, 6 days after infestation
Description: Example B6: Myzus persicae (Green Peach Aphid):Feeding/Contact Activity
Sunflower leaf discs were placed onto agar in a 24-well microtiter plate and sprayed with aqueous test solutions prepared from 10,000 ppm DMSO stock solutions. After drying, the leaf discs were infested with an aphid population of mixed ages. The samples were assessed for mortality 6 days after infestation.

[12] = system: Myzus persicae (Green Peach Aphid); assay: Example B7: Myzus persicae (green peach aphid), systemic activity; conditions: 144 h, test rate 24 ppm, pea seedling roots in test solution, 6 days
Description: Example B7: Myzus persicae (Green Peach Aphid), Systemic Activity
Roots of pea seedlings infested with an aphid population of mixed ages were placed directly into aqueous test solutions prepared from 10,000 DMSO stock solutions. The samples were assessed for mortality 6 days after placing seedlings into test solutions.

CC(NC(=O)c1cc(C2CC2C(F)(F)F)cc(C(F)(F)F)c1)c1ncnn1-c1ncccn1 (stereo not drawn) [P25, N-[1-(2-pyrimidin-2-yl-1,2,4-triazol-3-yl)ethyl]-3-(trifluoromethyl)-5-[2-(trifluoromethyl)cyclopropyl]benzamide]
≥ 80%: mortality at 500 ppm [1] | percent effect (mortality or growth inhibition) at 200 ppm [2] | percent effect (mortality or growth inhibition) at 200 ppm [3] | mortality at 12 ppm [4] | mortality at 50 ppm [5] | mortality at 200 ppm [6] | percent effect (mortality, anti-feeding or growth inhibition) at 12.5 ppm [7] | percent effect (mortality or growth inhibition) at 200 ppm [8] | percent control (mortality, anti-feedant effect or growth inhibition) at 200 ppm [9] | percent control (mortality, anti-feedant effect or growth inhibition) at 200 ppm [10]

CC(c1ncnn1-c1ncccn1)N(CC1CC1)C(=O)c1cc([S+]([O-])C(F)(F)F)cc(C(F)(F)F)c1 (stereo not drawn) [P26, N-(cyclopropylmethyl)-N-[1-(2-pyrimidin-2-yl-1,2,4-triazol-3-yl)ethyl]-3-(trifluoromethyl)-5-(trifluoromethylsulfinyl)benzamide]
≥ 80%: mortality at 200 ppm [11] | mortality at 500 ppm [1] | percent effect (mortality or growth inhibition) at 200 ppm [2] | percent effect (mortality or growth inhibition) at 200 ppm [3] | mortality at 12 ppm [4] | mortality at 50 ppm [5] | mortality at 24 ppm [12] | mortality at 200 ppm [6] | percent effect (mortality, anti-feeding or growth inhibition) at 12.5 ppm [7] | percent effect (mortality or growth inhibition) at 200 ppm [8] | percent control (mortality, anti-feedant effect or growth inhibition) at 200 ppm [9] | percent control (mortality, anti-feedant effect or growth inhibition) at 200 ppm [10]

CC(c1ncnn1-c1ncccn1)N(CC1CC1)C(=O)c1cc(C(F)(F)F)cc(C(C)(C)C#N)c1 (stereo not drawn) [P35, 3-(1-cyano-1-methyl-ethyl)-N-(cyclopropylmethyl)-N-[1-(2-pyrimidin-2-yl-1,2,4-triazol-3-yl)ethyl]-5-(trifluoromethyl)benzamide]
≥ 80%: mortality at 500 ppm [1] | percent effect (mortality or growth inhibition) at 200 ppm [2] | percent effect (mortality or growth inhibition) at 200 ppm [3] | mortality at 12 ppm [4] | mortality at 50 ppm [5] | mortality at 24 ppm [12] | mortality at 200 ppm [6] | percent effect (mortality or growth inhibition) at 200 ppm [8] | percent control (mortality, anti-feedant effect or growth inhibition) at 200 ppm [9]

CC(c1ncnn1-c1ncccn1)N(CC1CC1)C(=O)c1cc(C2CC2C(F)(F)F)cc(C(F)(F)F)c1 (stereo not drawn) [P42, N-(cyclopropylmethyl)-N-[1-(2-pyrimidin-2-yl-1,2,4-triazol-3-yl)ethyl]-3-(trifluoromethyl)-5-[2-(trifluoromethyl)cyclopropyl]benzamide]
≥ 80%: mortality at 200 ppm [11] | mortality at 500 ppm [1] | percent effect (mortality or growth inhibition) at 200 ppm [2] | percent effect (mortality or growth inhibition) at 200 ppm [3] | mortality at 12 ppm [4] | mortality at 50 ppm [5] | mortality at 200 ppm [6] | percent effect (mortality, anti-feeding or growth inhibition) at 12.5 ppm [7] | percent effect (mortality or growth inhibition) at 200 ppm [8] | percent control (mortality, anti-feedant effect or growth inhibition) at 200 ppm [9] | percent control (mortality, anti-feedant effect or growth inhibition) at 200 ppm [10]

CC(c1ncnn1-c1ncccn1)N(CC1CC1)C(=O)c1cc(C(F)(F)F)cc(C2(C#N)CC2)c1 (stereo not drawn) [P46, 3-(1-cyanocyclopropyl)-N-(cyclopropylmethyl)-N-[1-(2-pyrimidin-2-yl-1,2,4-triazol-3-yl)ethyl]-5-(trifluoromethyl)benzamide]
≥ 80%: mortality at 200 ppm [11] | mortality at 500 ppm [1] | percent effect (mortality or growth inhibition) at 200 ppm [2] | percent effect (mortality or growth inhibition) at 200 ppm [3] | mortality at 12 ppm [4] | mortality at 50 ppm [5] | mortality at 24 ppm [12] | mortality at 200 ppm [6] | percent effect (mortality or growth inhibition) at 200 ppm [8] | percent control (mortality, anti-feedant effect or growth inhibition) at 200 ppm [9]

CC(c1ncnn1-c1ncccn1)N(CC1CC1)C(=O)c1cc(C(F)(F)F)cc(C(F)(F)C2CC2)c1 (stereo not drawn) [P49, 3-[cyclopropyl(difluoro)methyl]-N-(cyclopropylmethyl)-N-[1-(2-pyrimidin-2-yl-1,2,4-triazol-3-yl)ethyl]-5-(trifluoromethyl)benzamide]
≥ 80%: mortality at 500 ppm [1] | percent effect (mortality or growth inhibition) at 200 ppm [2] | percent effect (mortality or growth inhibition) at 200 ppm [3] | mortality at 12 ppm [4] | mortality at 50 ppm [5] | mortality at 200 ppm [6] | percent effect (mortality, anti-feeding or growth inhibition) at 12.5 ppm [7] | percent effect (mortality or growth inhibition) at 200 ppm [8] | percent control (mortality, anti-feedant effect or growth inhibition) at 200 ppm [9] | percent control (mortality, anti-feedant effect or growth inhibition) at 200 ppm [10]

CC(c1ncnn1-c1ncccn1)N(CC1CC1)C(=O)c1cc(C2CC2(F)F)cc(C(F)(F)F)c1 (stereo not drawn) [P50, N-(cyclopropylmethyl)-3-(2,2-difluorocyclopropyl)-N-[1-(2-pyrimidin-2-yl-1,2,4-triazol-3-yl)ethyl]-5-(trifluoromethyl)benzamide]
≥ 80%: mortality at 200 ppm [11] | mortality at 500 ppm [1] | percent effect (mortality or growth inhibition) at 200 ppm [3] | mortality at 12 ppm [4] | mortality at 50 ppm [5] | mortality at 200 ppm [6] | percent effect (mortality, anti-feeding or growth inhibition) at 12.5 ppm [7] | percent effect (mortality or growth inhibition) at 200 ppm [8] | percent control (mortality, anti-feedant effect or growth inhibition) at 200 ppm [9] | percent control (mortality, anti-feedant effect or growth inhibition) at 200 ppm [10]

Cc1nc(C(C)NC(=O)c2cc(C(F)(F)F)cc(C(C)(C)C#N)c2)n(-c2ncccn2)n1 (stereo not drawn) [P82, 3-(1-cyano-1-methyl-ethyl)-N-[1-(5-methyl-2-pyrimidin-2-yl-1,2,4-triazol-3-yl)ethyl]-5-(trifluoromethyl)benzamide]
≥ 80%: mortality at 200 ppm [11] | percent effect (mortality or growth inhibition) at 200 ppm [2] | percent effect (mortality or growth inhibition) at 200 ppm [3] | mortality at 12 ppm [4] | mortality at 24 ppm [12] | percent effect (mortality or growth inhibition) at 200 ppm [8] | percent control (mortality, anti-feedant effect or growth inhibition) at 200 ppm [9] | percent control (mortality, anti-feedant effect or growth inhibition) at 200 ppm [10]

CC(NC(=O)c1cc(C(F)(F)F)cc(C(C)(C)C#N)c1)c1ncnn1-c1ncccn1 (stereo not drawn) [P84, 3-(1-cyano-1-methyl-ethyl)-N-[1-(2-pyrimidin-2-yl-1,2,4-triazol-3-yl)ethyl]-5-(trifluoromethyl)benzamide]
≥ 80%: percent effect (mortality or growth inhibition) at 200 ppm [2] | percent effect (mortality or growth inhibition) at 200 ppm [3] | mortality at 12 ppm [4] | mortality at 24 ppm [12] | percent effect (mortality or growth inhibition) at 200 ppm [8] | percent control (mortality, anti-feedant effect or growth inhibition) at 200 ppm [9] | percent control (mortality, anti-feedant effect or growth inhibition) at 200 ppm [10]
